What was measured:
Assay type in all cases: cell-based
H1581 (EGFR WT) = experiment: MTT cell survival assay; settings: EM2 (10, 30, 50 ng/ml) combined with Erlotinib 7 μM; Erl-resistant EGFR WT cells
Procedure: (§1) Cells (10^4 cells/well) were grown in 96-well plates and exposed for 72 hours to different doses of erlotinib, alone or in combination with EM2. The percentage of cell survival was determined using the 3-(4, 5-dimethylthiazol-2-yl)-2, 5-diphenyltetrazolium bromide (MTT). Single drug alone and vehicle were kept as controls.

[1] = system: H1975 (EGFR-double mutant line); experiment: MTT cell survival assay; settings: EM2 10 ng/ml combined with erlotinib; Erl-resistant H1975; 72 hours
Procedure: as §1

[2] = system: HCC827 (EGFR deletion mutant line); experiment: MTT cell survival assay; settings: 10 ng/ml of EM2 combined with erlotinib, 72 hours
Procedure: as §1

Ca-922 cell line = experiment: HoPI live cell staining; design: concentration or dose not given beside the values; settings: 24 hours
Text: A double stain of Hoechst 33342 and propidium iodide allows for the determination of cell viability with high specificity and low background noise, as compared to trypan blue staining. Hoechst 33342 is a cell permeable blue fluorescent nuclear stain which will stain all cell types. Propidium iodide is a cell impermeable red fluorescent nuclear stain that will only bind to the nuclei of cells with compromised membranes (dead cells). The staining can be performed rapidly on live cell suspensions within 15 minutes. 25 uL of 4× Hoechst 33342 Solution (40 ug/mL) and 25 uL of 4×Propidium Iodide Solution are added to 50 uL of cell suspension. The suspension was gently mixed 10 times and 50 uL was immediately transferred to a microfluidic cell counting chip. A 365 nm LED was used to excite both Hoechst 33342 and propidium iodide. Images of the cells were captured using a 10× objective lens on an Olympus microscope using a Canon EOS 6D camera using an ISO of 800 and an exposure of 2 seconds; both JPEG and RAW images were saved for analysis. The blue channel was used to measure the total number of cells and the red channel was used to measure the number of dead cells. Cell counting was performed automatically by the Image Pro software (Media Cybernetics, Inc).
MTA and EM effects on apoptosis were measured by Hoechst-Propidium Iodide staining (HoPI). For the assay, cells were seeded in 6-well plates at 400K cells per well, in 2 mL of 10% FBS-containing media and incubated for 24 hours. At 24 hours, a 1 nM to […] range of MTA and/or 1 ng/mL to 1 mg/mL range of EM doses was added and incubated for 24 hours. After 24 hours incubation respective cells' media was collected, added the 1× HBSS wash from the plate in the respective tube. Adherent cells were detached by treating with Accutase for 6 minutes and collected in respective tubes. All samples were centrifuged for 5 minutes at 1200 RPM. The cell pellets were resuspended in PBS and centrifuged again for 5 minutes at 1200 RPM. Cell pellets were resuspended in 200 uL of PBS and mixed properly to get single cell suspension. 50 uL of cell suspension was added into separate tubes having 10 uL of a 2× HOPI solution (20 ug/mL Hoechst 33342 and 20 ug/mL propidium iodide solution) to get a final concentration of Hoechst 33342 and propidium iodide to […]. Make up the volume to 100 uL with 40 uL of PBS. Samples were mixed thoroughly for even cell staining and the microfluidsic chip wells were each filled with 10 uL of sample. Chips were then incubated in the dark for 20 minutes. A 365 nm LED was used to excite both Hoechst 33342 and propidium iodide as they were visualize under a microscope. Cell images were captured using a 10× objective lens on an Olympus microscope using a Canon EOS 6D camera with an ISO of 800 and an exposure of 2 seconds; both JPEG and RAW images were saved for analysis. The blue channel was used to measure the total number of cells and the red channel was used to measure the number of dead cells. For image analysis, a copy of the image was created and converted directly into an 8-bit gray scale image. A threshold was placed on the image to create a binary mask; the threshold level was 20 intensity units out of 255 intensity units. Next, a particle analysis algorithm was applied to the binary mask and a set of cellular regions (between 100 to 800 cellular regions per image) was created. The original image was then split into red, green and blue channels. The area, mean intensity, standard deviation of the mean intensity, minimum intensity, maximum intensity and perimeter were measured for each cellular region in the red channel and also in the blue channel. The green channel was discarded. To discern between live and dead cells, the maximum intensity in the red channel was used with a threshold of 100 intensity units. Double plots were created using the intensity of the blue channel (X-axis) and the intensity of the red channel (Y-axis). […]

Row | Molecule | cell survival (MTT), sensitization to erlotinib (H1581 (EGFR WT)) | cell survival (MTT), response to erlotinib [1] | cell survival (MTT), sensitivity to erlotinib [2] | reduction in the number of live cells (HoPI) (Ca-922 cell line; osimertinib and TNFa in combination) | reduction in the number of live cells (HoPI) (Ca-922 cell line; single agent) | reduction in the number of live cells (HoPI) (Ca-922 cell line; GSK458 and IFNa in combination)
1 | tumor necrosis factor-alpha [EM2] | sensitized to Erl | enhanced response | increased sensitivity to Erl | 67% | 21% | 
2 | interferon-alpha-1 (protein, UniProt P01562 24-189, looked up, enhancer molecule, cytokine purchased from Sigma) Interferon alpha-1/13: CDLPETHSLDNRRTLMLLAQMSRISPSSCLMDRHDFGFPQEEFDGNQFQKAPAISVLHELIQQIFNLFTTKDSSAAWDEDLLDKFCTELYQQLNDLEACVMQEERVGETPLMNADSILAVKKYFRRITLYLTEKKYSPCAWEVVRAEIMRSLSLSTNLQERLRRKE |  |  |  |  | 24% | 26%

From patent publication US20220339257A1, “METHODS TO INCREASE THE SENSITIVITY AND REVERSING THE RESISTANCE TO DRUGS” (Biomarker Strategies, LLC, priority 2019, published 2022)
